Source: the NIST ThermoML archive (doi:10.1021/acs.jced.9b00249)

How the values were obtained:
[1] = for vapor or sublimation pressure: Diaphragm manometer; for mass density: isochoric method
[2] = xn = mol fraction of the nth substance listed; details: isochoric method

CCOCC [diethyl ether]
[1], Liquid
Details	vapor or sublimation pressure [kPa]
424.3 K	1790
434.3 K	2150
438.9 K	2390

[1], Liquid
Details	mass density [kg/m3]
442.3 K, 3250 kPa	473
445.3 K, 3750 kPa	473
447.8 K, 4200 kPa	473
450.2 K, 4750 kPa	473
453.9 K, 5680 kPa	473
459.4 K, 6890 kPa	473

CCOCC [diethyl ether] + CCC
[2]
Details	mass density [kg/m3]
351.8 K, 2080 kPa, Liquid, x2 = 0.748	474
359.2 K, 4110 kPa, Fluid (supercritical or subcritical phases), x2 = 0.748	474
362.8 K, 2080 kPa, Liquid, x2 = 0.651	474
369.5 K, 7470 kPa, Fluid (supercritical or subcritical phases), x2 = 0.748	474
370.3 K, 3910 kPa, Fluid (supercritical or subcritical phases), x2 = 0.651	474
372 K, 3100 kPa, Liquid, x2 = 0.743	401
379.4 K, 6660 kPa, Fluid (supercritical or subcritical phases), x2 = 0.651	474
379.4 K, 10830 kPa, Fluid (supercritical or subcritical phases), x2 = 0.748	474
382.7 K, 4110 kPa, Fluid (supercritical or subcritical phases), x2 = 0.743	401
387.9 K, 9300 kPa, Fluid (supercritical or subcritical phases), x2 = 0.651	474
390.1 K, 5340 kPa, Fluid (supercritical or subcritical phases), x2 = 0.743	401
391.1 K, 14590 kPa, Fluid (supercritical or subcritical phases), x2 = 0.748	474
394.9 K, 4010 kPa, Liquid, x2 = 0.655	401
397.1 K, 12250 kPa, Fluid (supercritical or subcritical phases), x2 = 0.651	474
399.9 K, 4420 kPa, Liquid, x2 = 0.742	311
401.1 K, 7670 kPa, Fluid (supercritical or subcritical phases), x2 = 0.743	401
401.1 K, 17840 kPa, Fluid (supercritical or subcritical phases), x2 = 0.748	474
401.9 K, 5030 kPa, Fluid (supercritical or subcritical phases), x2 = 0.655	401
405.6 K, 5640 kPa, Fluid (supercritical or subcritical phases), x2 = 0.655	401
407.5 K, 5130 kPa, Fluid (supercritical or subcritical phases), x2 = 0.742	311
407.7 K, 15710 kPa, Fluid (supercritical or subcritical phases), x2 = 0.651	474
409.2 K, 4620 kPa, Liquid, x2 = 0.651	311
410.7 K, 9710 kPa, Fluid (supercritical or subcritical phases), x2 = 0.743	401
411.4 K, 21600 kPa, Fluid (supercritical or subcritical phases), x2 = 0.748	474
412 K, 6760 kPa, Fluid (supercritical or subcritical phases), x2 = 0.655	401
417.7 K, 6250 kPa, Fluid (supercritical or subcritical phases), x2 = 0.742	311
418.5 K, 5130 kPa, Fluid (supercritical or subcritical phases), x2 = 0.651	311
419.2 K, 19360 kPa, Fluid (supercritical or subcritical phases), x2 = 0.651	474
419.7 K, 11640 kPa, Fluid (supercritical or subcritical phases), x2 = 0.743	401
422.6 K, 8790 kPa, Fluid (supercritical or subcritical phases), x2 = 0.655	401
429.1 K, 6250 kPa, Fluid (supercritical or subcritical phases), x2 = 0.651	311
429.1 K, 7570 kPa, Fluid (supercritical or subcritical phases), x2 = 0.742	311
429.6 K, 10210 kPa, Fluid (supercritical or subcritical phases), x2 = 0.655	401
430.4 K, 13770 kPa, Fluid (supercritical or subcritical phases), x2 = 0.743	401
437.5 K, 11740 kPa, Fluid (supercritical or subcritical phases), x2 = 0.655	401
437.5 K, 15300 kPa, Fluid (supercritical or subcritical phases), x2 = 0.743	401
437.8 K, 8590 kPa, Fluid (supercritical or subcritical phases), x2 = 0.742	311
438.5 K, 7270 kPa, Fluid (supercritical or subcritical phases), x2 = 0.651	311
447.3 K, 9710 kPa, Fluid (supercritical or subcritical phases), x2 = 0.742	311
447.6 K, 13670 kPa, Fluid (supercritical or subcritical phases), x2 = 0.655	401
449 K, 8390 kPa, Fluid (supercritical or subcritical phases), x2 = 0.651	311
452.4 K, 18650 kPa, Fluid (supercritical or subcritical phases), x2 = 0.743	401
455 K, 15200 kPa, Fluid (supercritical or subcritical phases), x2 = 0.655	401
458.5 K, 9500 kPa, Fluid (supercritical or subcritical phases), x2 = 0.651	311
459 K, 11220 kPa, Fluid (supercritical or subcritical phases), x2 = 0.742	311
466.1 K, 12150 kPa, Fluid (supercritical or subcritical phases), x2 = 0.742	311
467.4 K, 10620 kPa, Fluid (supercritical or subcritical phases), x2 = 0.651	311
470 K, 10930 kPa, Fluid (supercritical or subcritical phases), x2 = 0.651	311

COC [dimethyl ether]
[1]
Details	mass density [kg/m3]
382.8 K, 4580 kPa, Liquid	451
402.8 K, 8580 kPa, Gas	451
411.6 K, 10360 kPa, Gas	451
419.5 K, 12150 kPa, Gas	451
425.4 K, 13670 kPa, Gas	451
429.8 K, 14600 kPa, Gas	451
432.6 K, 15210 kPa, Gas	451
437.2 K, 16200 kPa, Gas	451

CCCCC [pentane]
Details	vapor or sublimation pressure [kPa]
[1], 406.9 K, Liquid	1300

[1], Liquid
Details	mass density [kg/m3]
417.1 K, 3060 kPa	484
428 K, 6070 kPa	484
436.6 K, 8340 kPa	484
446.3 K, 10730 kPa	484
453.2 K, 12730 kPa	484

CCCCC [pentane] + CCC
[2]
Details	mass density [kg/m3]
319.6 K, 5320 kPa, Liquid, x2 = 0.849	507
320.4 K, 12800 kPa, Liquid, x2 = 0.512	567
324.9 K, 8620 kPa, Liquid, x2 = 0.849	507
326.1 K, 16230 kPa, Liquid, x2 = 0.512	567
328.6 K, 10330 kPa, Liquid, x2 = 0.849	507
331.8 K, 12010 kPa, Liquid, x2 = 0.849	507
332 K, 19720 kPa, Liquid, x2 = 0.512	567
336.2 K, 14280 kPa, Liquid, x2 = 0.849	507
337.7 K, 22920 kPa, Liquid, x2 = 0.512	567
340.8 K, 16310 kPa, Liquid, x2 = 0.849	507
341.2 K, 24970 kPa, Liquid, x2 = 0.512	567
345.3 K, 18250 kPa, Liquid, x2 = 0.849	507
349.2 K, 20380 kPa, Liquid, x2 = 0.849	507
353.6 K, 22340 kPa, Liquid, x2 = 0.849	507
357.2 K, 24290 kPa, Liquid, x2 = 0.849	507
394.8 K, 3250 kPa, Liquid, x2 = 0.551	401
397.7 K, 4520 kPa, Liquid, x2 = 0.78	311
404.7 K, 4010 kPa, Fluid (supercritical or subcritical phases), x2 = 0.551	401
406.5 K, 5640 kPa, Fluid (supercritical or subcritical phases), x2 = 0.78	311
409.3 K, 3610 kPa, Liquid, x2 = 0.474	384
410.5 K, 4620 kPa, Fluid (supercritical or subcritical phases), x2 = 0.551	401
416.5 K, 6760 kPa, Fluid (supercritical or subcritical phases), x2 = 0.78	311
418.3 K, 5640 kPa, Fluid (supercritical or subcritical phases), x2 = 0.551	401
419.2 K, 4730 kPa, Fluid (supercritical or subcritical phases), x2 = 0.474	384
428.6 K, 8280 kPa, Fluid (supercritical or subcritical phases), x2 = 0.78	311
428.9 K, 6560 kPa, Fluid (supercritical or subcritical phases), x2 = 0.474	384
437.3 K, 9610 kPa, Fluid (supercritical or subcritical phases), x2 = 0.78	311
439.5 K, 8280 kPa, Fluid (supercritical or subcritical phases), x2 = 0.474	384
447.3 K, 10720 kPa, Fluid (supercritical or subcritical phases), x2 = 0.78	311
449.2 K, 10010 kPa, Fluid (supercritical or subcritical phases), x2 = 0.474	384
456.4 K, 12260 kPa, Fluid (supercritical or subcritical phases), x2 = 0.78	311

CCC [propane]
[1], Liquid
Details	vapor or sublimation pressure [kPa]
305.9 K	1030
319.2 K	1270
326.8 K	2260
334.3 K	2350
349.3 K	3040
362.1 K	3920
367.9 K	4440

[1], Gas
Details	mass density [kg/m3]
383.7 K, 5980 kPa	292
397.4 K, 7350 kPa	292
402.9 K, 7940 kPa	292
434 K, 12760 kPa	292
